No end group written: not given here. *: point of attachment. Octanoyl = CCCCCCCC(=O)*
Columns and labels:
[1] = tested on: hospitalized animals (canines and felines) after surgery; assay: Example 1: single dose of ghrelin in hospitalized animals after surgery, parameters before vs after administration; assay type: in vivo; settings: for Body temperature: animals improved/animals evaluated / Biochemical tests: animals improved/animals evaluated / Body temperature: response rate / Activity (vigor): animals improved/animals evaluated / Hematology tests: animals improved/animals evaluated: single dose
Protocol: In these Examples, a canine-derived ghrelin (a peptide compound in which a side chain hydroxyl group of the serine residue at the 3rd position from the amino terminus is acylated with an n-octanoyl group in SEQ ID NO: 1) was used as ghrelin. The canine-derived ghrelin was chemically synthesized and then lyophilized, and a canine-derived ghrelin for administration containing 0.1, 0.3, 0.5, or 1 mg per vial of a canine-derived ghrelin was prepared.
To administer ghrelin to animals, the canine-derived ghrelin was dissolved to a concentration of 1 mg/2 mL in physiological saline and intravenously, subcutaneously, or intramuscularly injected after the dose was adjusted depending on the body weight.
Animals hospitalized in veterinary hospitals, particularly canines and felines, were used for treatment. These animals may or may not have undergone a surgery for treatment. The surgeries performed on the animals were pyometra surgery, surgical removal of a reproductive organ, surgical removal of mammary gland tumor, ovary cyst surgery, liver cell tumor surgery, disc hernia surgery, diaphragmatic hernia surgery, fracture surgery, gastrointestinal tract surgery, and urethroplasty.
Physical conditions in animals with various pathological conditions were examined by measuring parameters including activity (vigor), blood cell test values, biochemical test values, urinalysis, electrolyte tests, body weight, body temperature, the degree of anger or anxiety, respiratory rate, and the like to evaluate the effect of improving physical conditions in the animals. The effect was evaluated by comparing various evaluation parameters before and after administration.
The evaluation parameters used were activity (vigor), body temperature, hematology parameters (blood cell test values), serum biochemistry parameters (biochemical test values), the degree of anger or anxiety, and respiratory rate. […] The degree of anger or anxiety of an animal observed visually by an observer were also evaluated using the following criteria: 1. calm and accustomed to a health care professional, 2. able to be touched by but unaccustomed to a health care professional and restless, 3. wandering around or hiding in the kennel with anxiety, 4. able to be barely touched, and 5. too violent to be touched by a health care professional and tends to bite.
13.2 to 80 μg/kg of a canine-derived ghrelin (chemically synthesized) was administered by an intravenous injection, a subcutaneous injection, or an intramuscular injection (solution for an injection: physiological saline or the like) to 32 animals (canines and felines) after surgery which were hospitalized in veterinary hospitals. The 32 cases of the animals were as follows.
Pyometra surgery and surgical removal of reproductive organ, 18 animals; mammary gland tumor surgery, three animals (including one animal also having pyometra); disc hernia surgery, two animals; surgery for a fracture or a traffic accident injury, three animals; urethroplasty, three animals; gastrointestinal tract surgery, two animals; and pneumothorax surgery, one animal.
Improvement of physical conditions of these animals was evaluated in terms of activity (vigor), body temperature, hematology parameters (blood cell test values), and serum biochemistry parameters (biochemical test values).

[2] = tested on: animals with poor physical conditions, surgery or no surgery; assay: Example 3-2: improvement after ghrelin in animals which had or had not undergone a surgery; assay type: in vivo, canines and felines; settings: dash = no significant difference
Protocol: A canine-derived ghrelin was repeatedly administered intravenously or subcutaneously to each of the animals with poor physical conditions. The dose of intravenous administration was approximately 5 μg/kg or 10 μg/kg, and the dose of subcutaneous administration was approximately 100 μg/kg. The mean number of doses in repeated administration was approximately four times, and the maximum number of doses was 11 times. The administration period was one to six days.
Evaluation parameters evaluated before and after administration of ghrelin were appetite, quantity of meal, biochemical test values (GOT, GPT, BUN, CRE, CPK, CRP), blood cell test values (white blood cell [WBC], platelet [PLT]), body temperature, activity (vigor), skin, coat, wellness, the degree of anger or anxiety, respiratory rate, and others. These parameters were analyzed together with the results of the animals receiving a single dose (Examples 1 and 2). The analysis results were compiled by disease, such as renal dysfunction, tumor, fracture, and accident (see Table 3-1). Statistical analysis of values before and after administration was performed using a paired t-test.
Ghrelin was administered to animals with poor physical conditions after surgery for the treatment of various pathological conditions, and various parameters indicating physical conditions before and after administration of ghrelin were analyzed. The surgery included urethroplasty, surgery for a fracture, luxation, disc hernia, or diaphragmatic hernia, surgical removal of a tumor, and surgical removal of a reproductive organ due to pyometra.
Meanwhile, ghrelin was administered to animals with poor physical conditions due to various pathological conditions which had not undergone a surgery, and various parameters indicating physical conditions before and after administration of ghrelin were analyzed. The pathological conditions included filariasis, mite infestation, babesiosis, hemobartonellosis, bite, and dermatitis.

[3] = gastrointestinal tract surgery, 2 animals
[4] = pyometra surgery and surgical removal of reproductive organ, 18 animals
[5] = surgical removal of mammary gland tumor, 3 animals
[6] = total, 32 animals after surgery

“GSS (n-octanoyl) FLSPEHQKLQQRKESKKPPAKLQPR (GSS(Octanoyl)FLSPEHQKLQQRKESKKPPAKLQPR; listed as Canis familiaris) [ghrelin, chemically synthesized, lyophilized]” was tested, and the “Body temperature: animals improved/animals evaluated” value ([1]; disc hernia surgery, 2 animals) was 1/1, the “Serum creatinine (Cre) value after administration” value ([1]; example, animal after surgery, before administration 6.0 mg/dL) was 1.1 mg/dL and the “Blood urea nitrogen (BUN) value after administration” value ([1]; example, animal after surgery, before administration 44.2 mg/dL) was 29.3 mg/dL. For the same substance, the “Total cholesterol (T-CHO) value after administration” value ([1]; example, animal after surgery, before administration 405 mg/dL) was 260 mg/dL, the “Glutamic pyruvic transaminase (GPT) value after administration” value ([1]; example, animal after surgery, before administration 180 IU/L) was 85 IU/L and the “Alkaline phosphatase (ALP) value after administration” value ([1]; example, animal after surgery, before administration 345 IU/L) was 286 IU/L. The “Creatinine phosphokinase (CPK) value after administration” value ([1]; example, animal after surgery, before administration 1429 IU/L) was 955 IU/L, the “C-reactive protein (CRP) value after administration” value ([1]; example, animal after surgery, before administration upper limit of measurement) was 7.3 mg/dL and the “White blood cell count after administration” value ([1]; example, animal after surgery, high count decreased, before administration 44.1×10^3/μL) was 17700 µL⁻¹. The “Platelet count after administration” value ([1]; example, animal after surgery, low count increased, before administration 13.9×10^4/μL) was 585000 µL⁻¹, the “Red blood cell count after administration” value ([1]; example, animal after surgery, low count increased, before administration 214×10^4/μL) was 3.04e+06 µL⁻¹ and the Hemoglobin level after administration ([1]; example, animal after surgery, low level increased) was 7.7 g/dL. The “Biochemical tests: animals improved/animals evaluated” value [1, 3] was 1/1, the “Body temperature: animals improved/animals evaluated” value [1, 3] was 1/1 and the “Body temperature: animals improved/animals evaluated” value ([1]; pneumothorax surgery, 1 animal) was 0/1. For the same substance, the “Body temperature: response rate” value ([1]; pneumothorax surgery, 1 animal) was “(0%)”, the “Activity (vigor): animals improved/animals evaluated” value [1, 4] was 6/7 and the “Biochemical tests: animals improved/animals evaluated” value [1, 4] was 3/3. The “Body temperature: animals improved/animals evaluated” value [1, 4] was 3/4, the “Hematology tests: animals improved/animals evaluated” value [1, 4] was 3/4 and the “Activity (vigor): animals improved/animals evaluated” value ([1]; surgery for fracture or traffic accident injury, 3 animals) was 3/3. The “Activity (vigor): animals improved/animals evaluated” value [1, 5] was 2/2, the “Biochemical tests: animals improved/animals evaluated” value [1, 5] was 1/1 and the “Body temperature: animals improved/animals evaluated” value [1, 5] was 1/1. For the same substance, the “Hematology tests: animals improved/animals evaluated” value [1, 5] was 1/1, the “Activity (vigor): animals improved/animals evaluated” value [1, 6] was 11/12 and the “Biochemical tests: animals improved/animals evaluated” value [1, 6] was 5/6. For the same substance, the “Body temperature: animals improved/animals evaluated” value [1, 6] was 5/8, the “Hematology tests: animals improved/animals evaluated” value [1, 6] was 4/6 and the “Activity (vigor): animals improved/animals evaluated” value ([1]; urethroplasty, 3 animals) was 1/1. For the same substance, the “Biochemical tests: animals improved/animals evaluated” value ([1]; urethroplasty, 3 animals) was 1/2, the “Body temperature: animals improved/animals evaluated” value ([1]; urethroplasty, 3 animals) was 0/1 and the “Body temperature: response rate” value ([1]; urethroplasty, 3 animals) was “(0%)”. The “Hematology tests: animals improved/animals evaluated” value ([1]; urethroplasty, 3 animals) was 1/2, the “BUN: significance (p) of improvement after vs before administration” value ([2]; no surgery, 24 animals) was “p < 0.05” and the “GPT: significance (p) of improvement after vs before administration” value ([2]; no surgery, 24 animals) was “p < 0.05”. The “Vigor: significance (p) of improvement after vs before administration” value ([2]; no surgery, 24 animals) was “p < 0.01”, the “WBC: significance (p) of improvement after vs before administration” value ([2]; no surgery, 24 animals) was “p < 0.05” and the “BUN: significance (p) of improvement after vs before administration” value ([2]; surgery, 70 animals) was “p < 0.05”. For the same substance, the “Body temperature: significance (p) of improvement after vs before administration” value ([2]; surgery, 70 animals) was “p < 0.01”, the “CRE: significance (p) of improvement after vs before administration” value ([2]; surgery, 70 animals) was “p < 0.05” and the “Degree of anger: significance (p) of improvement after vs before administration” value ([2]; surgery, 70 animals) was “p < 0.01”. For the same substance, the “GOT: significance (p) of improvement after vs before administration” value ([2]; surgery, 70 animals) was “p < 0.01”, the “GPT: significance (p) of improvement after vs before administration” value ([2]; surgery, 70 animals) was “p < 0.01” and the “PLT: significance (p) of improvement after vs before administration” value ([2]; surgery, 70 animals) was “p < 0.05”. The “Respiratory rate: significance (p) of improvement after vs before administration” value ([2]; surgery, 70 animals) was “p < 0.05” and the “Vigor: significance (p) of improvement after vs before administration” value ([2]; surgery, 70 animals) was “p < 0.01”.

From patent US9078868B2, “Therapeutic agent for accelerating recovery of animal under medical treatment” (UNIVERSITY OF MIYAZAKI, priority 2010, dated 2015)
